Reference: the NIST ThermoML archive (doi:10.1016/j.jct.2013.05.029)
± gives the expanded uncertainty stated by the source.

Assays:
[1] = relative permittivity at various frequencies (dimensionless); conditions: 101 kPa, Liquid, Frequency=0.151 MHz, Parallel plate capacitor
[2] = refractive index (other wavelength) (dimensionless); conditions: 101 kPa, Liquid, Wavelength=633 nm, Standard Abbe refractometry
[3] = 101.33 kPa, Liquid, Vibrating tube method
[4] = refractive index (other wavelength) (dimensionless); xn = mol fraction of the nth substance listed; conditions: 101 kPa, Liquid, Wavelength=633 nm, Standard Abbe refractometry

OCCC(F)(F)C(F)(F)C(F)(F)C(F)(F)C(F)(F)C(F)(F)F [1H,1H,2H,2H-perfluorooctanol]
Conditions | mass density [kg/m3] | refractive index | relative permittivity
[1], 293.15 K | – | – | 9.67 ± 0.02
[1], 298.15 K | – | – | 9.21 ± 0.02
[1], 303.15 K | – | – | 8.83 ± 0.02
[1], 308.15 K | – | – | 8.46 ± 0.02
[1], 313.15 K | – | – | 8.12 ± 0.02
[2], 292.89 K | – | 1.3152 ± 0.0021 | –
[2], 297.98 K | – | 1.3134 ± 0.0021 | –
[2], 300.94 K | – | 1.3125 ± 0.0021 | –
[2], 304.98 K | – | 1.3112 ± 0.0021 | –
[2], 307.95 K | – | 1.3101 ± 0.0021 | –
[2], 308.13 K | – | 1.31 ± 0.0021 | –
[3], 291.15 K | 1692.2 ± 0.9 | – | –
[3], 293.15 K | 1688.7 ± 0.9 | – | –
[3], 295.14 K | 1685.2 ± 0.9 | – | –
[3], 298.15 K | 1679.9 ± 0.9 | – | –
[3], 300.14 K | 1676.4 ± 0.9 | – | –
[3], 303.15 K | 1671 ± 0.9 | – | –
[3], 305.14 K | 1667.5 ± 0.9 | – | –
[3], 308.15 K | 1662.1 ± 0.8 | – | –
[3], 310.14 K | 1658.5 ± 0.8 | – | –

CCCCn1cc[n+](C)c1.F[B-](F)(F)F [1-butyl-3-methylimidazolium tetrafluoroborate]
Conditions | mass density [kg/m3] | refractive index
[2], 292.99 K | – | 1.4207 ± 0.002
[2], 298.14 K | – | 1.4194 ± 0.002
[2], 300.94 K | – | 1.4187 ± 0.002
[2], 303.06 K | – | 1.4182 ± 0.002
[2], 307.96 K | – | 1.4169 ± 0.002
[3], 291.15 K | 1206.3 ± 0.4 | –
[3], 293.15 K | 1204.9 ± 0.4 | –
[3], 295.14 K | 1203.5 ± 0.4 | –
[3], 298.15 K | 1201.3 ± 0.4 | –
[3], 300.14 K | 1199.9 ± 0.4 | –
[3], 303.15 K | 1197.7 ± 0.4 | –
[3], 305.14 K | 1196.3 ± 0.4 | –
[3], 308.15 K | 1194.1 ± 0.4 | –
[3], 310.14 K | 1192.7 ± 0.4 | –

OCCC(F)(F)C(F)(F)C(F)(F)C(F)(F)C(F)(F)C(F)(F)F [1H,1H,2H,2H-perfluorooctanol] + CCCCn1cc[n+](C)c1.F[B-](F)(F)F
[4]
Conditions | refractive index
568.17 K, x2 = 0.483 | 1.3609 ± 0.0021
568.17 K, x2 = 0.975 | 1.417 ± 0.002
569.9 K, x2 = 0.514 | 1.3635 ± 0.0021
569.9 K, x2 = 0.972 | 1.4162 ± 0.002
570.62 K, x2 = 0.528 | 1.3648 ± 0.0021
570.62 K, x2 = 0.969 | 1.4157 ± 0.002
571.13 K, x2 = 0.539 | 1.3658 ± 0.0021
571.13 K, x2 = 0.967 | 1.4153 ± 0.0021
571.88 K, x2 = 0.555 | 1.3673 ± 0.0021
571.88 K, x2 = 0.963 | 1.4146 ± 0.0021
572.59 K, x2 = 0.569 | 1.3686 ± 0.0021
572.59 K, x2 = 0.96 | 1.414 ± 0.002
573.11 K, x2 = 0.585 | 1.3701 ± 0.002
573.11 K, x2 = 0.958 | 1.4137 ± 0.0021
573.58 K, x2 = 0.595 | 1.3712 ± 0.002
573.58 K, x2 = 0.953 | 1.4128 ± 0.0021
574.07 K, x2 = 0.61 | 1.3726 ± 0.0021
574.07 K, x2 = 0.946 | 1.4119 ± 0.0021
574.57 K, x2 = 0.62 | 1.3736 ± 0.0021
574.57 K, x2 = 0.944 | 1.4115 ± 0.0021
575.11 K, x2 = 0.641 | 1.3757 ± 0.0021
575.11 K, x2 = 0.935 | 1.4102 ± 0.002
575.59 K, x2 = 0.663 | 1.378 ± 0.0021
575.59 K, x2 = 0.93 | 1.4096 ± 0.002
576.09 K, x2 = 0.684 | 1.3803 ± 0.002
576.09 K, x2 = 0.917 | 1.4078 ± 0.0021
576.69 K, x2 = 0.729 | 1.3852 ± 0.0021
576.69 K, x2 = 0.892 | 1.4045 ± 0.0021
